Experimental findings from patent publication US8871933B2, “Purified pyrroloquinolinyl-pyrrolidine-2,5-dione compositions and methods for preparing and using same” (ArQule, Inc., priority 2009, dated 2014) are described below.

Data set [1] deals with MDA-MB-231 cells or MIA PaCa-2 (PACA-2) cells. Briefly: Cell survival in six-well plates, Wright-Giemsa stain. The format is cell-based. The note with it: Homo sapiens; 0.1-2 μM, 10-15 days; MDA-MB-231 or Paca-2 cells, cell line of the IC50 not stated. As for the experimental part:
Exponentially growing MDA-MB-231 cells or MIA PaCa-2 (also known as PACA-2) cells were seeded at 1,000 cells per well in six-well plates and allowed to attach for 24 hours. MDA-MB-231 and MIA PaCa-2 cells were cultured in DMEM supplemented with 10% (v/v) fetal bovine serum (FBS) and 5 ml Penicillin/Streptomycin at 37° C. in 5% CO2. MDA-MB-231 and MIA PaCa-2 were established in estrogen receptor-negative human breast cancer and pancreatic carcinoma cell lines, respectively. (±)-cis-3-(5,6-dihydro-4H-pyrrolo[3,2,1-ij]quinolin-1-yl)-4-(1H-indol-3-yl)pyrrolidine-2,5-dione or (±)-trans-3-(5,6-dihydro-4H-pyrrolo[3,2,1-ij]quinolin-1-yl)-4-(1H-indol-3-yl)pyrrolidine-2,5-dione were each dissolved at a concentration of 10 mM in DMSO, and separately added to cells at a concentration of 0.1, 0.25, 0.5, 1 or 2 μM. Control plates received DMSO alone, at the same percentage of total culture volume as that administered in conjunction with the highest concentration of drug. Cell cultures were observed daily for 10-15 days, then fixed and stained with modified Wright-Giemsa stain (Sigma). Treatment with (±)-cis-3-(5,6-dihydro-4H-pyrrolo[3,2,1-ij]quinolin-1-yl)-4-(1H-indol-3-yl)pyrrolidine-2,5-dione or (±)-trans-3-(5,6-dihydro-4H-pyrrolo[3,2,1-ij]quinolin-1-yl)-4-(1H-indol-3-yl)pyrrolidine-2,5-dione results in cell death of MDA-MB-231 cells or Paca-2 cells. See, e.g., FIG. 2.

For data set [2], the target named is Recombinant Protein Kinase C. Briefly: Protein Kinase C kinase assay (Histone H1, 32P-ATP, autoradiography). The format is biochemical. Details: dose or concentration left out as unconfirmed. The note with it: for 15 minutes at room temperature. The method, then: Recombinant Protein Kinase C (Calbiochem) (100 ng) was incubated with (±)-cis-3-(5,6-dihydro-4H-pyrrolo[3,2,1-ij]quinolin-1-yl)-4-(1H-indol-3-yl)pyrrolidine-2,5-dione or (±)-trans-3-(5,6-dihydro-4H-pyrrolo[3,2,1-ij]quinolin-1-yl)-4-(1H-indol-3-yl)pyrrolidine-2,5-dione at […] for 15 minutes at room temperature. Subsequently, a radioactive labeling mix in kinase buffer (20 mM Tris-HCl pH 7.5, 10 mM MgCl2) containing 20 μM ATP, 0.2 μCi/μl γ^32P-ATP, 0.2 μg/μl Histone H1 (Upstate Biotechnology/Millipore, Bedford, Mass.) was added to each sample. The kinase reaction was carried out for 5 minutes at room temperature. Reaction products were analyzed by 12% SDS-PAGE and autoradiography.

The test system of another data set is MDA-MB-231 cells. Briefly: Colony formation / surviving fraction assay. The format is cell-based. The note with it: Homo sapiens, two days incubation, colonies counted two weeks later, read-out: IC50 (surviving fraction equaled 50). As for the experimental part:
MDA-MB-231 cells (ATCC #HTB-26), grown in DMEM plus 15% heat inactivated fetal bovine serum plus 10 mM HEPES pH 7.5, were plated in 60 mm^2 plates (2×10^5 cells per plate). After two days candidate compounds in DMSO at various concentrations were diluted in media and added to individual plates such that the final DMSO concentration in the cell culture media was 0.1%. After two days incubation the culture was trypsinized, cells were washed with media, counted using a hemocytometer and 500 cells, including cell bodies, were plated in 100 mm^2 plates in media. Two weeks later the media was removed and the cell colonies were fixed with methanol for 10 minutes, stained with 1% crystal violet for 10 minutes, washed with water and air dried. Cell colonies were visually counted when there were greater then 50 cells present per colony. Plating efficiency was defined as the average number of colonies formed divided by 500. The surviving fraction was defined as the plating efficiency of a candidate compound divided by the plating efficiency of DMSO multiplied by 100. For candidate compound titrations, the IC50 value was determined by fitting the equation y=Ae^Bx to the data points and extrapolating the concentration where surviving fraction equaled 50. […]

The target of the next data set is c-Met (Homo sapiens, UniProt P08581). Kind of data set: c-Met phosphorylation in MDA-MB-231 cells, basal and HGF-induced (Western blot). The format is cell-based. Also on record: Whole cell extracts were prepared in lysis buffer; endogenous in cells; host or cells: MDA-MB-231. The note with it: 20 μM. The method, then:
MDA-MB-231 cells were serum-deprived overnight (16 hours) in the absence or in the presence of the indicated concentrations of the separate enantiomers (+)-trans-3-(5,6-dihydro-4H-pyrrolo[3,2,1-ij]quinolin-1-yl)-4-(1H-indol-3-yl)pyrrolidine-2,5-dione and (−)-trans-3-(5,6-dihydro-4H-pyrrolo[3,2,1-ij]quinolin-1-yl)-4-(1H-indol-3-yl)pyrrolidine-2,5-dione. Cells were treated with 100 ng/ml recombinant human Hepatocyte Growth Factor/Scatter Factor (HGF/SF) (R&D Systems #294-HG) for 10 minutes. Whole cell extracts were prepared in lysis buffer (20 mM Tris-HCl pH 7.5, 150 mM NaCl, 1 mM Na2EDTA, 1 mM EGTA, 1% Triton X-100, 2.5 mM sodium pyrophosphate, 1 mM beta-glycerophosphate, 1 mM Na3VO4, 1 μg/ml leupeptin, 1 mM phenylmethylsulfonyl fluoride) and sonicated. Protein concentration was measured by Bradford assay using the BioRad reagent (BioRad, Hercules, Calif.), according to the manufacturer's directions. Samples ([…] of protein) were resolved by 8% SDS-PAGE under reducing conditions and transferred onto a PVDF membrane (BioRad). […] Proteins were detected by incubation overnight at 4° C. in TBS-T with 5% milk and either a polyclonal antibody against phosphorylated c-Met (#3121) or a monoclonal antibody against β-actin (A-5441) (Sigma), which was used as a control for total protein loading. […]
(In general: A western blot detects proteins with antibodies after separation by electrophoresis.)

Data set [3] can be described thus: Interconversion experiments (thermodynamic stability of polymorphs). The format is physicochemical. The method, then:
Form 1 is orthorhombic and contains four molecules of (−)-trans-3-(5,6-dihydro-4H-pyrrolo[3,2,1-ij]quinolin-1-yl)-4-(1H-indol-3-yl)pyrrolidine-2,5-dione per cell. Form 1 has a melting point of ˜218° C. recorded in DSC (See, FIG. 16).
The two polymorphs can be interconverted when proper conditions are used to control the crystallization process. Form 2 can be obtained by dissolving Form 1 in methanol, seeding with Form 2 and evaporating the mixture to dryness by rotary evaporation. The successful conversion was determined to be Form 2 by IR analysis and corroborated by XRPD analysis.

A short description of a further data set: physchem. It counts as physicochemical. The method, then: Form 1 and Form 2 have different equilibrium solubilities: Form 2=0.61 mg/mL and Form 1=0.51 mg/mL.
The nature of data set [4]: Storage stability of Form 2. The format is physicochemical. The note with it: 40° C./75% RH for up to six months and 25° C./60% RH for up to 12 months; multiple batches.

Values after ≈ are worked out from the molar mass of the structure shown.

Usually IC50 stands for the midpoint of a concentration-inhibition curve. The solubility (thermodynamic) is the concentration in solution at equilibrium with solid.

Chain of c-Met (P08581 25-1390): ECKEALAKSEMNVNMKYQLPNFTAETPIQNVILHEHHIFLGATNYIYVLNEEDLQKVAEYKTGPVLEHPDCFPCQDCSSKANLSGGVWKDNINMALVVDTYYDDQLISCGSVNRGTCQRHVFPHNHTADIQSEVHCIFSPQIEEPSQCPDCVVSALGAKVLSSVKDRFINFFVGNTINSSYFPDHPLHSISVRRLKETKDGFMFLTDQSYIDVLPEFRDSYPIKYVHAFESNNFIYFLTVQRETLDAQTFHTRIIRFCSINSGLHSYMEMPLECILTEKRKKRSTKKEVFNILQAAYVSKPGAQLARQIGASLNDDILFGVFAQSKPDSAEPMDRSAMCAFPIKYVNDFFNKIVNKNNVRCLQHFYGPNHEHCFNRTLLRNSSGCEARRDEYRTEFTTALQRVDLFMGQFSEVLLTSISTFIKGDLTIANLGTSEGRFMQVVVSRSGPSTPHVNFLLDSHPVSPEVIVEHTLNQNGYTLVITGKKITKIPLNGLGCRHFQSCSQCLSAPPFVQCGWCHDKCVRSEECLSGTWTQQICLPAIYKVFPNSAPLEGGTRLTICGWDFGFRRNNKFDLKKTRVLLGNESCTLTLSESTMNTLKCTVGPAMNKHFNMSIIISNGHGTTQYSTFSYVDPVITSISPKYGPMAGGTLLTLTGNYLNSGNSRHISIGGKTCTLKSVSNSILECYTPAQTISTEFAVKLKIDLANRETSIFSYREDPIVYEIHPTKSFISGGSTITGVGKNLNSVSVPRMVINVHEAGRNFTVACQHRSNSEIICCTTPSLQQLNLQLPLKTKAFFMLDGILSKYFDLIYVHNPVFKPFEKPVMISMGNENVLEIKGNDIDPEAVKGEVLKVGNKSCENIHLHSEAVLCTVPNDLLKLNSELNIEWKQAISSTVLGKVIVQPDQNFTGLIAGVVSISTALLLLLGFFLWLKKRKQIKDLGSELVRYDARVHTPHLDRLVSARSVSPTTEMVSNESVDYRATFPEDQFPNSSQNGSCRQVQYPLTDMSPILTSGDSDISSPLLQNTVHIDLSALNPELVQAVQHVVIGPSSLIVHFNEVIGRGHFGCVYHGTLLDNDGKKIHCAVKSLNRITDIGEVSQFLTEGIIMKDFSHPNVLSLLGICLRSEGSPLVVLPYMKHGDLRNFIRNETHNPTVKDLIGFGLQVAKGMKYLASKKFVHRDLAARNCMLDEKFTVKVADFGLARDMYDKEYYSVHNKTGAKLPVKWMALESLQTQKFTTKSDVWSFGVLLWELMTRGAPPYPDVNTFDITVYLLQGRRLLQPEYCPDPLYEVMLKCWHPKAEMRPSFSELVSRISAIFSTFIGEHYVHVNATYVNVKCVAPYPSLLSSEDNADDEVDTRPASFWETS

`O=C1NC(=O)[C@@H](c2cn3c4c(cccc24)CCC3)[C@H]1c1c[nH]c2ccccc12` (racemic) [(±)-cis-3-(5,6-dihydro-4H-pyrrolo[3,2,1-ij]quinolin-1-yl)-4-(1H-indol-3-yl)pyrrolidine-2,5-dione]: in data set [1], half-maximal inhibition (IC50) was put at 500 nM. Further, the “kinase activity in comparison to treatment with carrier alone” value in data set [2] was “did not reduce kinase activity”.

Regarding `O=C1NC(=O)[C@@H](c2cn3c4c(cccc24)CCC3)[C@@H]1c1c[nH]c2ccccc12` (racemic) [(±)-trans-3-(5,6-dihydro-4H-pyrrolo[3,2,1-ij]quinolin-1-yl)-4-(1H-indol-3-yl)pyrrolidine-2,5-dione], it took 500 nM to reach half-maximal inhibition in data set [1] (IC50). Further, the “kinase activity in comparison to treatment with carrier alone” value in data set [2] was “did not reduce kinase activity”.

Regarding `O=C1NC(=O)[C@@H](c2cn3c4c(cccc24)CCC3)[C@@H]1c1c[nH]c2ccccc12` [(+)-trans-3-(5,6-dihydro-4H-pyrrolo[3,2,1-ij]quinolin-1-yl)-4-(1H-indol-3-yl)pyrrolidine-2,5-dione], in the data set on MDA-MB-231 cells, the half-maximal inhibitory concentration (IC50) stood at 4100 nM. In addition, the “inhibitory effect on c-Met phosphorylation” value at c-Met is on record as “only a minimum inhibitory effect”.

As to `O=C1NC(=O)[C@@H](c2cn3c4c(cccc24)CCC3)[C@@H]1c1c[nH]c2ccccc12` [Form 1, (−)-trans-3-(5,6-dihydro-4H-pyrrolo[3,2,1-ij]quinolin-1-yl)-4-(1H-indol-3-yl)pyrrolidine-2,5-dione], the thermodynamic stability entry in data set [3] was “more thermodynamically stable than Form 2”. Further, the equilibrium solubilities in “physchem” is given as 0.51 mg/mL.

`O=C1NC(=O)[C@@H](c2cn3c4c(cccc24)CCC3)[C@@H]1c1c[nH]c2ccccc12` [Form 2, (−)-trans-3-(5,6-dihydro-4H-pyrrolo[3,2,1-ij]quinolin-1-yl)-4-(1H-indol-3-yl)pyrrolidine-2,5-dione] yielded a solubility (thermodynamic) in the data set “physchem” (thermodynamic from solid, equilibrium solubilities) of 610 µg/mL (≈ 1650 µM). Moreover, in data set [4], the “change in crystalline form or purity upon storage” value is on record as “No discernable change in crystalline form or purity”.
